Laboratory results published in patent publication US5703050A (Hoechst Aktiengesellschaft, priority 1993, dated 1997).
Like-named read-outs stand apart in the source and are kept apart here.

Columns and labels:
[1] = test system: gel-filtered human platelets; experiment: Inhibition of the aggregation of gel-filtered human platelets after ADP or thrombin stimulation; format: cell-based; details: platelet aggregation
Protocol: (§1) The compounds are tested in particular for their inhibitory effect on blood platelet aggregation and the adhesion of fibrinogen to blood platelets. Gel-filtered blood platelets from human donor blood are used, which are activated with ADP or thrombin.
As a functional test, the inhibition of the aggregation of gel-filtered human platelets is measured after ADP or thrombin stimulation by the compounds according to the invention. The IC50 value of the inhibition is indicated (reference: G. A. Marguerie et al., J. Biol. Chem. 254 (1979), 5357-5363).

[2] = biological target: T1, fibrinogen receptor (glycoprotein IIb/IIIa) (Homo sapiens, UniProt P05106+P08514); experiment: Inhibition of binding of 125I-fibrinogen to its receptor on intact, gel-filtered human platelets; details: inhibition of 125I-fibrinogen binding after stimulation with ADP (10 μM), read-out: Ki (μM), ADP-stimulated
T1 construct: its receptor (glycoprotein IIb/IIIa) on intact, gel-filtered human platelets; endogenous in cells; host or cells: gel-filtered platelets from human donor blood, stimulated with ADP (10 uM)
Protocol: as §1
The inhibition of the binding of fibrinogen to its receptor (glycoprotein IIb/IIIa) on intact, gel-filtered human platelets by the compounds according to the invention is tested. The Ki value of the inhibition of binding of 125I-fibrinogen after stimulation with ADP (10 μM) is indicated. (Reference: J. S. Bennett and G. Vilaire, J. Clin. Invest. 64 (1979) 1393-1401; E. Kornecki et al., J. Biol. Chem. 256 (1981), 5695-5701; G. A. Marguerie et al., J. Biol. Chem. 254 (1979) 5357-5363; G. A. Marguerie et al., J. Biol. Chem. 255 (1980) 154-161.)

[3] = ADP stimulation, read-out: ADP-stimulated IC50
[4] = thrombin stimulation, read-out: thrombin-stimulated IC50

T1 sequence (P08514 32-887 limits assumed): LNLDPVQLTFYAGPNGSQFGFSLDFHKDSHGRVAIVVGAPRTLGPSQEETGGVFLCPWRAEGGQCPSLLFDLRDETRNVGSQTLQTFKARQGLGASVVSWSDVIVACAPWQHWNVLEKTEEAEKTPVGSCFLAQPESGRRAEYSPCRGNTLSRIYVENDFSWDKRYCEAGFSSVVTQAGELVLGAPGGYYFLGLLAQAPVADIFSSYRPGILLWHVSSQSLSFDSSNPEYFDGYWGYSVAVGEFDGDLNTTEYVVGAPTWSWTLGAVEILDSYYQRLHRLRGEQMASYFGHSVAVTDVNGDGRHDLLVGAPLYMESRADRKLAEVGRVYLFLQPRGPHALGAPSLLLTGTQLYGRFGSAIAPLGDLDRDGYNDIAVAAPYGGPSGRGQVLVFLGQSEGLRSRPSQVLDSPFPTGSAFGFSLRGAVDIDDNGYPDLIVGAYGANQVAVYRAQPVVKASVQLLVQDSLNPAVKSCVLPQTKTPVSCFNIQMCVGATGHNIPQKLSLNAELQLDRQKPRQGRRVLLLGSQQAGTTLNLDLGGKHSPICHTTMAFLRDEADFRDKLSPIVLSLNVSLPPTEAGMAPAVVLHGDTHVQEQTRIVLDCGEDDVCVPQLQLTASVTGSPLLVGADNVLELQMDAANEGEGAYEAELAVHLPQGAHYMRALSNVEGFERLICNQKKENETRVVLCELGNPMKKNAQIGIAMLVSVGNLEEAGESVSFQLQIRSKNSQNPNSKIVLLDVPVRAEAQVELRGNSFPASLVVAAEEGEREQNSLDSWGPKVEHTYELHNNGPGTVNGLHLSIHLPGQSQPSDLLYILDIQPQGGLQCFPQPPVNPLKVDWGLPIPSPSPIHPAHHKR
T1 sequence (P08514 891-1039 limits assumed): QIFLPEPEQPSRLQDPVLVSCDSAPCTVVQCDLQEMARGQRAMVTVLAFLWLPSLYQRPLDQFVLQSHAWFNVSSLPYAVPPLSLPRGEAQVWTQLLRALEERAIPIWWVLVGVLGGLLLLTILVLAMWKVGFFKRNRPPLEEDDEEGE
T1 sequence (P05106 27-788): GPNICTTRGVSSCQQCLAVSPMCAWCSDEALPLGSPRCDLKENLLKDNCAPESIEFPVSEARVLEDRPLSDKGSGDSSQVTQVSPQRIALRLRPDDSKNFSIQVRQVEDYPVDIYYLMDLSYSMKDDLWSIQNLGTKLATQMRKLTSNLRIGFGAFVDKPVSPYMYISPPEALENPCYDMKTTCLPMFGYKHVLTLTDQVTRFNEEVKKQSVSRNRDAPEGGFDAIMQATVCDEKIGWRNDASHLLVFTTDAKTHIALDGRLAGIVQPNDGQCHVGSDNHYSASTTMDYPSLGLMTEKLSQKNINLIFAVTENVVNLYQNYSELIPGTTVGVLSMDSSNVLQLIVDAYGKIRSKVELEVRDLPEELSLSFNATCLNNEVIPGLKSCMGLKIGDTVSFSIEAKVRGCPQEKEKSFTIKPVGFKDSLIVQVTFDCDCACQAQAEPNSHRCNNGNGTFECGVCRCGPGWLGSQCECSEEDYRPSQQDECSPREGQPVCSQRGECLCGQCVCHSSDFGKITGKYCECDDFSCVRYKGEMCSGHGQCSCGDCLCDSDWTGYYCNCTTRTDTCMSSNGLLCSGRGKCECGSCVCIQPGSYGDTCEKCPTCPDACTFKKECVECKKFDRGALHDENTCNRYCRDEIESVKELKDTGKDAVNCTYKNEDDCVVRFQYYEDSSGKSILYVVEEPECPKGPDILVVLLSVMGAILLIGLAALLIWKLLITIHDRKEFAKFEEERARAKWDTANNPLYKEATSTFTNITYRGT

| Compound | IC50 [1, 3] | IC50 [1, 4] | Ki [2] |
| --- | --- | --- | --- |
| N=C(N)c1ccc(NC(=O)NCC(=O)N[C@@H](CC(=O)O)C(=O)N[C@H](C(=O)O)c2ccccc2)cc1 [Example 1] | 150 nM | 100 nM | 0.03 µM |
| (3-(4-(Aminoiminomethyl)phenyl)ureido)acetyl-L-aspartyl-L-phenylglycine methyl ester trifluoroaetate [Example 6] | 750 nM | 300 nM |  |

Further lines, with some results ahead:

| IC50 [1, 3] | IC50 [1, 4] | Compound | Ki [2] |
| --- | --- | --- | --- |
| 8500 nM | 3000 nM | 3-(3-(3-Aminopropyl)ureido)benzoyl-L-aspartyl-L-phenylglycine [Example 10] |  |
| 3000 nM | 1500 nM | 3-((3-(4-(Aminoiminomethyl)phenyl)ureido)acetylamino)-3-phenyl-propionic acid [Example 7] |  |
| 2000 nM | 2000 nM | (3-(4-(Aminoiminomethyl)phenyl)ureido)acetyl-L-aspartylbenzylamide [Example 8] |  |
